One experiment concerns Staphylococcus aureus. Nature of the experiment: ED50 in experimentally infected mice. Type of experiment: in vivo. As to conditions: mice infected with Staphylococcus aureus; administered subcutaneously 1 and 4 hours postinfection.
For experiment [1], the system named is Staphylococcus aureus X1.1. Nature of the experiment: MIC, standard agar-dilution assay. Type of experiment: cell-based.
Experiment [2] deals with Streptococcus pneumoniae Park I. The format is cell-based. As to conditions: agar dilution.
Experiment [3] concerns Streptococcus pyogenes C203. The experiment is described as follows: MIC, standard agar-dilution assay. Type of experiment: cell-based.
Experiment [4] has as its system Haemophilus influenzae C.L. Nature of the experiment: MIC, standard agar-dilution assay. The format is cell-based. Particulars: ampicillin-sensitive strain.
For experiment [5], the system named is Staphylococcus epidermidis EPI1. Type of experiment: cell-based.
Experiment [6] relates to Streptococcus Group D X66. The experiment is described as follows: MIC, standard agar-dilution assay. Type of experiment: cell-based.
The subject of experiment [7] is Staphylococcus aureus V41. The experiment is described as follows: MIC, standard agar-dilution assay. Type of experiment: cell-based.
Experiment [8] concerns Haemophilus influenzae 76. The experiment is described as follows: MIC, standard agar-dilution assay. Type of experiment: cell-based. As to conditions: Haemophilus influenzae 76, ampicillin-resistant strain.
In experiment [9] the test system is Staphylococcus aureus S13E. Type of experiment: cell-based. Particulars: agar dilution.
Experiment [10] relates to Staphylococcus epidermidis EPI2. The experiment is described as follows: MIC, standard agar-dilution assay. Type of experiment: cell-based.
Experiment [11] has as its system Staphylococcus aureus X400. The experiment is described as follows: MIC, standard agar-dilution assay. Type of experiment: cell-based. Particulars: Staphylococcus aureus X400, methicillin-resistant strain.
The test system of a further experiment is Streptococcus Group 9960. The experiment is described as follows: MIC, standard agar-dilution assay. Type of experiment: cell-based.
The mark [12] stands for this setting: Staphylococcus aureus X1.1, agar dilution.
Setting [13] is: Streptococcus pyogenes C203, agar dilution.
[14] abbreviates: Staphylococcus epidermidis EPI1, agar dilution.
Setting [15] is: Streptococcus Group D X66, agar dilution.
[16] abbreviates: Staphylococcus aureus V41, penicillin-resistant strain, agar dilution.
Where [17] appears, read: Streptococcus Group 9960, agar dilution.

This note sets out measurements from US4497802A, “N-Acyl glycopeptide derivatives” (Eli Lilly and Company, priority 1983, dated 1985).

Read-outs that look alike come from different tables or passages of the source.

For “N--(11-aminoundecanoyl)A35512B [Example 7]”, the ED50 in the experiment on Staphylococcus aureus was determined as 4.5 mg/kg × 2. Further, the MIC in experiment [1] (setting [12]) is 4 µg/mL; in [2], 4 µg/mL; in experiment [3] (setting [13]), 2 µg/mL; in [4], “-- (Compound not active at less than 128 mcg/ml)”; in experiment [5] (setting [14]), 8 µg/mL; in [6] (setting [15]), 4 µg/mL. For the same substance, the MIC is 4 µg/mL in [7] (setting [16]); “-- (Compound not active at less than 128 mcg/ml)” in experiment [8]; 4 µg/mL in experiment [9]; 16 µg/mL in experiment [10]; 8 µg/mL in experiment [11]; 4 µg/mL in the experiment on Streptococcus Group 9960 (setting [17]).
As to N--(nonanoyl)A35512B [Example 8], the ED50 in the experiment with Staphylococcus aureus was 11.34 mg/kg × 2. The MIC was determined as 2 µg/mL in [1] (setting [12]); 4 µg/mL in [2]; 2 µg/mL in [3] (setting [13]); 2 µg/mL in experiment [5] (setting [14]); 4 µg/mL in [6] (setting [15]); 2 µg/mL in [7] (setting [16]). The MIC came to 2 µg/mL in experiment [9], 4 µg/mL in experiment [10], 2 µg/mL in [11] and 2 µg/mL against Streptococcus Group 9960 (setting [17]).
Substance “N--[p-(dodecyloxy)phenylpropanoyl]A35512B [Example 9]” gave an ED50 in the experiment on Staphylococcus aureus of 70 mg/kg × 2. In addition, the MIC was determined as 4 µg/mL in experiment [1] (setting [12]); 2 µg/mL in experiment [2]; 2 µg/mL in experiment [3] (setting [13]); 16 µg/mL in experiment [5] (setting [14]); 4 µg/mL in [6] (setting [15]); 8 µg/mL in experiment [7] (setting [16]). Moreover, the MIC in experiment [9] was 8 µg/mL; in experiment [10], 16 µg/mL; in [11], 8 µg/mL; against Streptococcus Group 9960 (setting [17]), 4 µg/mL.
In the experiment with Staphylococcus aureus, N--(D-phenylglycyl)A35512B [Example 5] returned an ED50 of 14.4 mg/kg × 2. The MIC in experiment [1] (setting [12]) was found to be 4 µg/mL; in experiment [2] it was 4 µg/mL; in [3] (setting [13]), 2 µg/mL; in [5] (setting [14]) it was 4 µg/mL; in [6] (setting [15]), 8 µg/mL; in experiment [7] (setting [16]), 4 µg/mL. In addition, the MIC in [9] came to 8 µg/mL; in [10], 8 µg/mL; in experiment [11] it was 8 µg/mL; in the experiment on Streptococcus Group 9960 (setting [17]), 4 µg/mL.
With N-(L-phenylalanyl)A35512B [Example 2], the ED50 with Staphylococcus aureus amounted to 5.87 mg/kg × 2. The MIC came out at 4 µg/mL in experiment [1] (setting [12]); 4 µg/mL in [2]; 2 µg/mL in experiment [3] (setting [13]); 4 µg/mL in experiment [5] (setting [14]); 4 µg/mL in [6] (setting [15]); 4 µg/mL in experiment [7] (setting [16]). For the same substance, the MIC in [9] worked out at 4 µg/mL; in experiment [10], 8 µg/mL; in [11], 8 µg/mL; in the experiment on Streptococcus Group 9960 (setting [17]), 4 µg/mL.
In the case of “N-[N-(tert-butoxycarbonyl)-L-phenylalanyl]-A35512B [Example 1]”, the MIC in experiment [1] (setting [12]) stood at 8 µg/mL; in experiment [2] it was 2 µg/mL; in experiment [3] (setting [13]), 1 µg/mL; in experiment [5] (setting [14]), 8 µg/mL; in [6] (setting [15]) it was 4 µg/mL; in experiment [7] (setting [16]), 8 µg/mL. In addition, the MIC in experiment [9] was 8 µg/mL; in experiment [10] it was 32 µg/mL; in experiment [11] it was 16 µg/mL; in the experiment with Streptococcus Group 9960 (setting [17]) it was 2 µg/mL.
Take “N--[N--(t-Boc)--11-aminoundecanoyl)A35512B [Example 6]”: the MIC was determined as 2 µg/mL in experiment [1] (setting [12]); 1 µg/mL in [2]; 1 µg/mL in experiment [3] (setting [13]); 8 µg/mL in [5] (setting [14]); 2 µg/mL in experiment [6] (setting [15]); 4 µg/mL in experiment [7] (setting [16]). The MIC was determined as 4 µg/mL in [9], 8 µg/mL in [10], 4 µg/mL in experiment [11] and 4 µg/mL against Streptococcus Group 9960 (setting [17]).
On to “N--[N--(hexanoyl)-L-tryptophyl]A35512B [Example 3]”, for which the ED50 with Staphylococcus aureus was 10.84 mg/kg × 2. For the same substance, the MIC in [1] (setting [12]) was 4 µg/mL; in experiment [2] it was 1 µg/mL; in experiment [3] (setting [13]), 1 µg/mL; in experiment [5] (setting [14]), 8 µg/mL; in [6] (setting [15]), 4 µg/mL; in [7] (setting [16]), 8 µg/mL. Also, the MIC was 4 µg/mL in experiment [9], 8 µg/mL in experiment [10], 8 µg/mL in experiment [11] and 2 µg/mL in the experiment with Streptococcus Group 9960 (setting [17]).
As for “N--[N--(t-Boc)--L-phenylalanyl)A41030A [Example 16]”, the MIC in experiment [1] (setting [12]) worked out at 0.25 µg/mL; in experiment [2], 0.5 µg/mL; in experiment [3] (setting [13]), 0.5 µg/mL; in [4], 32 µg/mL; in experiment [5] (setting [14]), 0.25 µg/mL; in experiment [6] (setting [15]) it was 1 µg/mL. Besides, the MIC in experiment [7] (setting [16]) came out at 0.25 µg/mL; in experiment [8], 32 µg/mL; in experiment [9], 0.25 µg/mL; in experiment [10] it was 0.5 µg/mL; in experiment [11] it was 0.5 µg/mL; in the experiment on Streptococcus Group 9960 (setting [17]) it was 0.125 µg/mL.
On to “N--(nonanoyl)A35512B pseudoaglycone [Example 13]”, for which the MIC was 2 µg/mL in experiment [1] (setting [12]); 4 µg/mL in experiment [2]; 2 µg/mL in experiment [3] (setting [13]); “-- (Compound not active at less than 128 mcg/ml)” in experiment [4]; 2 µg/mL in [5] (setting [14]); 4 µg/mL in experiment [6] (setting [15]). Further, the MIC was 2 µg/mL in experiment [7] (setting [16]); “-- (Compound not active at less than 128 mcg/ml)” in experiment [8]; 2 µg/mL in experiment [9]; 4 µg/mL in [10]; 2 µg/mL in [11]; 2 µg/mL in the experiment on Streptococcus Group 9960 (setting [17]).
As to “N--[N--(t-Boc)--L-phenylalanyl)A47934 [Example 23]”, the MIC in experiment [1] (setting [12]) amounted to 0.125 µg/mL; in experiment [2], 0.125 µg/mL; in [3] (setting [13]), 0.5 µg/mL; in experiment [4] it was 8 µg/mL; in experiment [5] (setting [14]) it was 0.125 µg/mL; in [6] (setting [15]), 1 µg/mL. Besides, the MIC in experiment [7] (setting [16]) amounted to 0.125 µg/mL; in experiment [8], 8 µg/mL; in [9], 0.125 µg/mL; in experiment [10], 0.5 µg/mL; in experiment [11], 0.25 µg/mL; with Streptococcus Group 9960 (setting [17]) it was 2 µg/mL.
“N--[N--(t-Boc)--11-aminoundecanoyl]A35512B pseudoaglycone [Example 14]”: the MIC in experiment [1] (setting [12]) is 8 µg/mL; in [2], 4 µg/mL; in experiment [3] (setting [13]), 4 µg/mL; in [4], “-- (Compound not active at less than 128 mcg/ml)”; in [5] (setting [14]), 4 µg/mL; in [6] (setting [15]) it was 4 µg/mL. For the same substance, the MIC is 8 µg/mL in experiment [7] (setting [16]); “-- (Compound not active at less than 128 mcg/ml)” in experiment [8]; 8 µg/mL in experiment [9]; 16 µg/mL in experiment [10]; 8 µg/mL in [11]; 8 µg/mL against Streptococcus Group 9960 (setting [17]).
On to “N--(11-aminoundecanoyl)A35512B pseudoaglycone [Example 15]”, for which the MIC in experiment [1] (setting [12]) was 1 µg/mL; in [2] it was “-- (Compound not active at less than 128 mcg/ml)”; in experiment [3] (setting [13]), 1 µg/mL; in experiment [4] it was “-- (Compound not active at less than 128 mcg/ml)”; in [5] (setting [14]), 2 µg/mL; in experiment [6] (setting [15]), 2 µg/mL. Further, the MIC in [7] (setting [16]) is 1 µg/mL; in experiment [8], “-- (Compound not active at less than 128 mcg/ml)”; in [9] it was 1 µg/mL; in experiment [10] it was 2 µg/mL; in experiment [11], 1 µg/mL; with Streptococcus Group 9960 (setting [17]), 2 µg/mL.
As for “N--[(3-sydnone)acetyl]A35512B [Example 12]”, the ED50 in the experiment with Staphylococcus aureus came to 10.97 mg/kg × 2. The MIC in experiment [1] is 4 µg/mL; in experiment [2] it was 2 µg/mL; in [3] it was 2 µg/mL; in [5] it was 8 µg/mL; in experiment [6], 8 µg/mL; in experiment [7], 8 µg/mL. Moreover, the MIC in experiment [9] came to 8 µg/mL; in experiment [10], 16 µg/mL; in experiment [11], 16 µg/mL; against Streptococcus Group 9960, 8 µg/mL.
With “N--[N--(t-Boc)--D-phenylglycyl]A35512B [Example 4]”, the MIC in [1] (setting [12]) was 4 µg/mL; in experiment [2] it was 2 µg/mL; in experiment [3] (setting [13]) it was 2 µg/mL; in [4], “-- (Compound not active at less than 128 mcg/ml)”; in experiment [5] (setting [14]) it was 8 µg/mL; in experiment [6] (setting [15]), 8 µg/mL. Further, the MIC is 8 µg/mL in [7] (setting [16]); “-- (Compound not active at less than 128 mcg/ml)” in [8]; 8 µg/mL in experiment [9]; 16 µg/mL in experiment [10]; 16 µg/mL in experiment [11]; 4 µg/mL in the experiment on Streptococcus Group 9960 (setting [17]).
